Measured values as given in the supplement of paper PMC10307832.

Legend:
Assay in all cases: relative viability (nuclei count vs DMSO), 5 days (fraction); higher = more cells survive
Nelarabine + Trametinib = compound: COc1nc(N)nc2c1ncn2[C@@H]1O[C@H](CO)[C@@H](O)[C@@H]1O [Nelarabine] + CC(=O)Nc1cccc(-n2c(=O)n(C3CC3)c(=O)c3c(Nc4ccc(I)cc4F)n(C)c(=O)c(C)c32)c1 [Trametinib] (partner 0.02 µM)
Summary of the method: (§1)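 Nuclei were stained with Hoechst during a one-step fixation (final 0.05% Triton X-100, 1% formaldehyde, 1 ug/ml Hoechst) carried out 5 days after dosing, then counted on 4× images. The cells, lung cancer lines in 1536-well plates, had been dosed by pin tool the day after seeding with one drug alone or a fixed anchor-drug dose plus five library-drug doses (not always all listed) in √10 steps. Relative viability is the nuclei count in treated wells divided by that in vehicle wells, and each value is the median of duplicate plates.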

Nelarabine + Foretinib = compound: COc1nc(N)nc2c1ncn2[C@@H]1O[C@H](CO)[C@@H](O)[C@@H]1O [Nelarabine] + COc1cc2c(Oc3ccc(NC(=O)C4(C(=O)Nc5ccc(F)cc5)CC4)cc3F)ccnc2cc1OCCCN1CCOCC1 [Foretinib] (partner 0.25 µM)
Summary of the method: as §1

Nelarabine + Pemetrexed = compound: COc1nc(N)nc2c1ncn2[C@@H]1O[C@H](CO)[C@@H](O)[C@@H]1O [Nelarabine] + Nc1nc2[nH]cc(CCc3ccc(C(=O)N[C@@H](CCC(=O)O)C(=O)O)cc3)c2c(=O)[nH]1 [Pemetrexed] (partner 0.2 µM)
Summary of the method: as §1

Nelarabine + Olaparib = compound: COc1nc(N)nc2c1ncn2[C@@H]1O[C@H](CO)[C@@H](O)[C@@H]1O [Nelarabine] + O=C(c1cc(Cc2n[nH]c(=O)c3ccccc23)ccc1F)N1CCN(C(=O)C2CC2)CC1 [Olaparib] (partner 8 µM)
Summary of the method: as §1

Cell Line: EMC-BAC-2
- relative viability (Nelarabine + Trametinib; first compound 0.01 µM): 0.895
- relative viability (Nelarabine + Trametinib; first compound 0.03162 µM): 1.02
- relative viability (Nelarabine + Trametinib; first compound 0.1 µM): 0.819
- relative viability (Nelarabine + Trametinib; first compound 0.3162 µM): 0.821
- relative viability (Nelarabine + Trametinib; first compound 1 µM): 0.916
- relative viability (Nelarabine + Foretinib; first compound 0.01 µM): 1.06
- relative viability (Nelarabine + Foretinib; first compound 0.03162 µM): 1
- relative viability (Nelarabine + Foretinib; first compound 0.1 µM): 0.913
- relative viability (Nelarabine + Foretinib; first compound 0.3162 µM): 0.975
- relative viability (Nelarabine + Foretinib; first compound 1 µM): 0.963
- relative viability (Nelarabine + Pemetrexed; first compound 0.01 µM): 0.44
- relative viability (Nelarabine + Pemetrexed; first compound 0.03162 µM): 0.456
- relative viability (Nelarabine + Pemetrexed; first compound 0.1 µM): 0.502
- relative viability (Nelarabine + Pemetrexed; first compound 0.3162 µM): 0.52
- relative viability (Nelarabine + Pemetrexed; first compound 1 µM): 0.508
- relative viability (Nelarabine + Olaparib; first compound 0.01 µM): 0.538
- relative viability (Nelarabine + Olaparib; first compound 0.03162 µM): 0.432
- relative viability (Nelarabine + Olaparib; first compound 0.1 µM): 0.486
- relative viability (Nelarabine + Olaparib; first compound 0.3162 µM): 0.529
- relative viability (Nelarabine + Olaparib; first compound 1 µM): 0.553
